Experimental data reported in US20240374546A1, “USES AND METHODS FOR PROMOTING INCREASED MITOCHONDRIAL MASS AND FUNCTION” (Brightseed, Inc., priority 2022, published 2024).

Key:
palmitate-loaded cells = experiment: Fat clearance from palmitate-loaded cells; assay type: cell-based; conditions: in vitro
HNF4α [1] = target: T1, HNF4α (Homo sapiens, UniProt P41235); experiment: Cell-based human insulin promoter reporter assay sensitive to HNF4α activity
T1 sequence (P41235 1-474): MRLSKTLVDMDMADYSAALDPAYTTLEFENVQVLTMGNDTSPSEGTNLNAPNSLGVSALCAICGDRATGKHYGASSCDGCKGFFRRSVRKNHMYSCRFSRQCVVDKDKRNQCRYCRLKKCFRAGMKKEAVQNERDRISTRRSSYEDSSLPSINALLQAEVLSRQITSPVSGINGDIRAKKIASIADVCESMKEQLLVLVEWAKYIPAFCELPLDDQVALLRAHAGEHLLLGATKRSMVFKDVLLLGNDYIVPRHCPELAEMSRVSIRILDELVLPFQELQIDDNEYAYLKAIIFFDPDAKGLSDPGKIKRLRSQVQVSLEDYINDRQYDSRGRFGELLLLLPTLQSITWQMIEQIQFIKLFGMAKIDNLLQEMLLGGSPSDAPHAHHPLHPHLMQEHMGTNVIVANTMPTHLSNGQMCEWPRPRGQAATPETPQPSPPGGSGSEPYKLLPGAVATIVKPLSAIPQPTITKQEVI
Source text: HNF4α is a nuclear receptor transcription factor that controls the expression of downstream genes that are important in multiple aspects of cellular metabolism. The classical view of HNF4α has been that its ligand binding pocket (LBP) is constitutively occupied by a fatty acid that plays a structural rather than regulatory role. However, it has been shown recently that the fatty acids in the HNF4α LBP are exchangeable in the context of full length HNF4α, particularly inside the cell. […] Using the assay in high-throughput screening, it was discovered HNF4α antagonists and more recently agonists. […] Previously, it was shown that intraperitoneal (IP) administration of NCT reversed hepatic steatosis in obese mice fed a high fat diet through a previously unsuspected pathway involving regulation by HNF4α of dihydroceramide synthesis.

HNF4α [2] = target: T1, HNF4α; conditions: cited from earlier work

Structure (SMILES) | fat clearance from palmitate-loaded cells (palmitate-loaded cells) | HNF4α agonist activity (HNF4α [1]) | HNF4α activator activity of known drugs (HNF4α [2])
COc1cc(/C=C/C(=O)NCCc2ccc(O)cc2)ccc1O [NFT, N-transferuloyltyramine] | induced fat clearance | strong HNF4α agonists | –
CC(Cc1cccc(C(F)(F)F)c1)NCCOC(=O)c1ccccc1 (stereo not shown) [benfluorex] | – | – | weak HNF4α activators
CCN(CCCc1ccccc1)CCCc1ccccc1 [alverine] | – | – | weak HNF4α activators
